The NIST ThermoML archive (doi:10.1016/j.jct.2016.08.001)
Numbers after ± are expanded uncertainties.

Key:
[1] = refractive index (Na D-line) (dimensionless); xn = mol fraction of the nth substance listed; conditions: 100 kPa, Liquid, Standard Abbe refractometry
[2] = xn = mol fraction of the nth substance listed; conditions: 100 kPa, Liquid; for speed of sound: Frequency=3 MHz, Sing-around technique in a fixed-path interferometer; for mass density: Vibrating tube method

N#Cc1ccccc1 [benzonitrile] + CCOC(=O)OCC
Conditions | mass density, [2] [kg/m3] | refractive index, [1] | speed of sound, [2] [m/s]
298.15 K, x2 = 0 | 1000.6 ± 1 | 1.526 ± 0.0016 | 1415.6 ± 1.5
298.15 K, x2 = 0.0854 | 998.8 ± 1 | 1.5123 ± 0.0016 | 1396.3 ± 1.5
298.15 K, x2 = 0.1886 | 996.7 ± 1 | 1.4963 ± 0.0016 | 1373.1 ± 1.5
298.15 K, x2 = 0.2618 | 994.9 ± 1 | 1.4851 ± 0.0016 | 1356.1 ± 1.5
298.15 K, x2 = 0.3642 | 992.1 ± 1 | 1.4698 ± 0.0016 | 1331.9 ± 1.5
298.15 K, x2 = 0.462 | 989.3 ± 1 | 1.4556 ± 0.0016 | 1308.6 ± 1.5
298.15 K, x2 = 0.5563 | 986.3 ± 1 | 1.442 ± 0.0016 | 1286.1 ± 1.5
298.15 K, x2 = 0.6599 | 982.7 ± 1 | 1.4275 ± 0.0016 | 1261 ± 1.5
298.15 K, x2 = 0.7732 | 978.5 ± 1 | 1.412 ± 0.0016 | 1233.3 ± 1.5
298.15 K, x2 = 0.8703 | 974.6 ± 1 | 1.3991 ± 0.0016 | 1209.4 ± 1.6
303.15 K, x2 = 0 | 995.9 ± 1 | 1.5235 ± 0.0016 | 1398.1 ± 1.5
303.15 K, x2 = 0.0854 | 994 ± 1 | 1.5098 ± 0.0016 | 1378.5 ± 1.5
303.15 K, x2 = 0.1886 | 991.9 ± 1 | 1.494 ± 0.0016 | 1354.8 ± 1.5
303.15 K, x2 = 0.2618 | 990 ± 1 | 1.4828 ± 0.0016 | 1337.7 ± 1.5
303.15 K, x2 = 0.3642 | 987.2 ± 1 | 1.4676 ± 0.0016 | 1313.1 ± 1.5
303.15 K, x2 = 0.462 | 984.3 ± 1 | 1.4533 ± 0.0016 | 1289.5 ± 1.5
303.15 K, x2 = 0.5563 | 981.2 ± 1 | 1.4398 ± 0.0016 | 1266.7 ± 1.5
303.15 K, x2 = 0.6599 | 977.5 ± 1 | 1.4253 ± 0.0016 | 1241.3 ± 1.5
303.15 K, x2 = 0.7732 | 973.2 ± 1 | 1.4098 ± 0.0016 | 1213.3 ± 1.5
303.15 K, x2 = 0.8703 | 969.2 ± 1 | 1.3969 ± 0.0016 | 1189.2 ± 1.5
308.15 K, x2 = 0 | 991.4 ± 1 | 1.5209 ± 0.0016 | 1380.8 ± 1.5
308.15 K, x2 = 0.0854 | 989.5 ± 1 | 1.5074 ± 0.0016 | 1360.8 ± 1.5
308.15 K, x2 = 0.1886 | 987.2 ± 1 | 1.4916 ± 0.0016 | 1336.7 ± 1.5
308.15 K, x2 = 0.2618 | 985.3 ± 1 | 1.4806 ± 0.0016 | 1319.3 ± 1.5
308.15 K, x2 = 0.3642 | 982.3 ± 1 | 1.4653 ± 0.0016 | 1294.4 ± 1.5
308.15 K, x2 = 0.462 | 979.3 ± 1 | 1.4511 ± 0.0016 | 1270.6 ± 1.5
308.15 K, x2 = 0.5563 | 976.1 ± 1 | 1.4376 ± 0.0016 | 1247.4 ± 1.5
308.15 K, x2 = 0.6599 | 972.3 ± 1 | 1.4231 ± 0.0016 | 1221.8 ± 1.5
308.15 K, x2 = 0.7732 | 967.8 ± 1 | 1.4076 ± 0.0016 | 1193.5 ± 1.5
308.15 K, x2 = 0.8703 | 963.7 ± 1 | 1.3946 ± 0.0016 | 1169.1 ± 1.5
313.15 K, x2 = 0 | 986.9 ± 1 | 1.5184 ± 0.0016 | 1363.6 ± 1.5
313.15 K, x2 = 0.0854 | 984.9 ± 1 | 1.505 ± 0.0016 | 1343.2 ± 1.5
313.15 K, x2 = 0.1886 | 982.5 ± 1 | 1.4893 ± 0.0016 | 1318.7 ± 1.5
313.15 K, x2 = 0.2618 | 980.5 ± 1 | 1.4783 ± 0.0016 | 1301 ± 1.5
313.15 K, x2 = 0.3642 | 977.4 ± 1 | 1.4631 ± 0.0016 | 1275.9 ± 1.5
313.15 K, x2 = 0.462 | 974.2 ± 1 | 1.4489 ± 0.0016 | 1251.8 ± 1.5
313.15 K, x2 = 0.5563 | 970.9 ± 1 | 1.4353 ± 0.0016 | 1228.3 ± 1.5
313.15 K, x2 = 0.6599 | 967 ± 1 | 1.4208 ± 0.0016 | 1202.4 ± 1.5
313.15 K, x2 = 0.7732 | 962.4 ± 1 | 1.4054 ± 0.0016 | 1173.8 ± 1.5
313.15 K, x2 = 0.8703 | 958.2 ± 1 | 1.3924 ± 0.0016 | 1149.2 ± 1.5
318.15 K, x2 = 0 | 982.5 ± 1 | 1.5158 ± 0.0016 | 1346.5 ± 1.5
318.15 K, x2 = 0.0854 | 980.4 ± 1 | 1.5025 ± 0.0016 | 1325.7 ± 1.5
318.15 K, x2 = 0.1886 | 977.9 ± 1 | 1.487 ± 0.0016 | 1300.8 ± 1.5
318.15 K, x2 = 0.2618 | 975.8 ± 1 | 1.4761 ± 0.0016 | 1282.9 ± 1.5
318.15 K, x2 = 0.3642 | 972.5 ± 1 | 1.4609 ± 0.0016 | 1257.4 ± 1.5
318.15 K, x2 = 0.462 | 969.2 ± 1 | 1.4466 ± 0.0016 | 1233 ± 1.5
318.15 K, x2 = 0.5563 | 965.8 ± 1 | 1.4332 ± 0.0016 | 1209.3 ± 1.5
318.15 K, x2 = 0.6599 | 961.7 ± 1 | 1.4187 ± 0.0016 | 1183.2 ± 1.5
318.15 K, x2 = 0.7732 | 956.9 ± 1 | 1.4032 ± 0.0016 | 1154.3 ± 1.5
318.15 K, x2 = 0.8703 | 952.7 ± 1 | 1.3902 ± 0.0016 | 1129.5 ± 1.5
323.15 K, x2 = 0 | 977.9 ± 1 | 1.5133 ± 0.0016 | 1329.5 ± 1.5
323.15 K, x2 = 0.0854 | 975.8 ± 1 | 1.5002 ± 0.0016 | 1308.3 ± 1.5
323.15 K, x2 = 0.1886 | 973.2 ± 1 | 1.4848 ± 0.0016 | 1282.9 ± 1.5
323.15 K, x2 = 0.2618 | 971 ± 1 | 1.4739 ± 0.0016 | 1264.9 ± 1.5
323.15 K, x2 = 0.3642 | 967.6 ± 1 | 1.4587 ± 0.0016 | 1239.3 ± 1.5
323.15 K, x2 = 0.462 | 964.2 ± 1 | 1.4445 ± 0.0016 | 1214.5 ± 1.5
323.15 K, x2 = 0.5563 | 960.6 ± 1 | 1.431 ± 0.0016 | 1190.6 ± 1.5
323.15 K, x2 = 0.6599 | 956.5 ± 1 | 1.4165 ± 0.0016 | 1164.1 ± 1.5
323.15 K, x2 = 0.7732 | 951.5 ± 1 | 1.401 ± 0.0016 | 1135 ± 1.5
323.15 K, x2 = 0.8703 | 947.1 ± 1 | 1.3881 ± 0.0016 | 1110 ± 1.5
